Source: BindingDB's records for doi:10.1016/j.bmcl.2006.01.017 (Celera, 2006)

Key:
Serine protease 1 = target: T1, Serine protease 1 (Bos taurus, UniProt P00760); experiment: Enzyme Inhibition Assay; details: pH 7.4; 22 °C
T1 sequence (P00760 whole entry): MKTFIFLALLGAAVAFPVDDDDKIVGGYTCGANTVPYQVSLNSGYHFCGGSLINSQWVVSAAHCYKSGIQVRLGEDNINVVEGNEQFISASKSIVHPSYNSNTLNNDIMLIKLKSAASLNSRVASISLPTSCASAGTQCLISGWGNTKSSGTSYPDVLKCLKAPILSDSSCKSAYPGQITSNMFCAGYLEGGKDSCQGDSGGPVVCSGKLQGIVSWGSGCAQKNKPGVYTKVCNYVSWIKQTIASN
Description: (§1) The apparent Ki values were then calculated according to the Cheng-Prusoff equation: Ki = IC50/1 + [S]/Km.

Coagulation factor VII = target: T2, Coagulation factor VII (Homo sapiens, UniProt P08709); experiment: Enzyme Inhibition Assay; details: pH 7.4; 22 °C
T2 sequence (P08709 whole entry): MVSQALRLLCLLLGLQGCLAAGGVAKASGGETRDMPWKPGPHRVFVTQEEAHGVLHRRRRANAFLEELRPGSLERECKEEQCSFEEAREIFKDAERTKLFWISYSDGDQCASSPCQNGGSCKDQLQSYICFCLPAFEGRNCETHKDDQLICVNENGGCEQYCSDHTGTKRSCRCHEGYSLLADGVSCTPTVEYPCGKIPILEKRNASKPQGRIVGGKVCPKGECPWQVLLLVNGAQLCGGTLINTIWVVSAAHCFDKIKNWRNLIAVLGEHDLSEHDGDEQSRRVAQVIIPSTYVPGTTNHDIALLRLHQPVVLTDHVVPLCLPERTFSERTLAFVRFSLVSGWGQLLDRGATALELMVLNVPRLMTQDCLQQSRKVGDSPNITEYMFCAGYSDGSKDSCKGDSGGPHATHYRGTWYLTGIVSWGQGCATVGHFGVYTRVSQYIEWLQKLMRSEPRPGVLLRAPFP
Description: as §1

| Ki (Serine protease 1) | Ki (Coagulation factor VII) | Structure (SMILES) |
| --- | --- | --- |
| > 150 µM | – | Nc1ccc2[nH]c(-c3cc(CC(=O)O)cc(-c4cccc([N+](=O)[O-])c4)c3O)nc2n1 [2-(3-{5-amino-1H-imidazo[4,5-b]pyridin-2-yl}-4-hydroxy-5-(3-nitrophenyl)phenyl)acetic acid] |
| – | 7.4 µM | CS(=O)(=O)c1cccc(-c2cc(CC(=O)O)cc(-c3cc4nc(N)ccc4[nH]3)c2O)c1 [2-(3-{5-amino-1H-pyrrolo[3,2-b]pyridin-2-yl}-4-hydroxy-5-(3-methanesulfonylphenyl)phenyl)acetic acid] |
| – | 12 µM | NC(=O)Nc1cccc(-c2cc(CC(=O)O)cc(-c3cc4nc(N)ccc4[nH]3)c2O)c1 [2-(3-{5-amino-1H-pyrrolo[3,2-b]pyridin-2-yl}-5-[3-(carbamoylamino)phenyl]-4-hydroxyphenyl)acetic acid] |
| – | 1.4 µM | CN(C)CCNC(=O)NCc1cccc(-c2cc(CC(=O)O)cc(-c3cc4nc(N)ccc4[nH]3)c2O)c1 [2-(3-{5-amino-1H-pyrrolo[3,2-b]pyridin-2-yl}-5-{3-[({[2-(dimethylamino)ethyl]carbamoyl}amino)methyl]phenyl}-4-hydroxyphenyl)acetic acid] |
| > 150 µM | – | O=C(O)Cc1cc(-c2cccc([N+](=O)[O-])c2)c(O)c(-c2nc3ccccc3[nH]2)c1 [2-[3-(1H-1,3-benzodiazol-2-yl)-4-hydroxy-5-(3-nitrophenyl)phenyl]acetic acid] |
